For the experiment, the target named is JAK1 (Homo sapiens, UniProt P23458). Kind of experiment: Biochemical Kinase Assay (JAK), 33P-ATP filter-binding. Conditions: Biochemical Kinase Inhibition Assay; potency level of IC50; read-out: JAK1 (range). The protocol: Biochemical Kinase Assay Protocol (JAK) • Reagent: Base Reaction buffer; 20 mM Hepes (pH 7.5), 10 mM MgCl2, 1 mM EGTA, 0.02% Brij™ 35, 0.02 mg/ml BSA, 0.1 mM Na3VO4, 2 mM DTT, 1% DMSO, where required cofactors were added individually to each kinase reaction.
Sequence of JAK1 (P23458 whole entry, species assumed): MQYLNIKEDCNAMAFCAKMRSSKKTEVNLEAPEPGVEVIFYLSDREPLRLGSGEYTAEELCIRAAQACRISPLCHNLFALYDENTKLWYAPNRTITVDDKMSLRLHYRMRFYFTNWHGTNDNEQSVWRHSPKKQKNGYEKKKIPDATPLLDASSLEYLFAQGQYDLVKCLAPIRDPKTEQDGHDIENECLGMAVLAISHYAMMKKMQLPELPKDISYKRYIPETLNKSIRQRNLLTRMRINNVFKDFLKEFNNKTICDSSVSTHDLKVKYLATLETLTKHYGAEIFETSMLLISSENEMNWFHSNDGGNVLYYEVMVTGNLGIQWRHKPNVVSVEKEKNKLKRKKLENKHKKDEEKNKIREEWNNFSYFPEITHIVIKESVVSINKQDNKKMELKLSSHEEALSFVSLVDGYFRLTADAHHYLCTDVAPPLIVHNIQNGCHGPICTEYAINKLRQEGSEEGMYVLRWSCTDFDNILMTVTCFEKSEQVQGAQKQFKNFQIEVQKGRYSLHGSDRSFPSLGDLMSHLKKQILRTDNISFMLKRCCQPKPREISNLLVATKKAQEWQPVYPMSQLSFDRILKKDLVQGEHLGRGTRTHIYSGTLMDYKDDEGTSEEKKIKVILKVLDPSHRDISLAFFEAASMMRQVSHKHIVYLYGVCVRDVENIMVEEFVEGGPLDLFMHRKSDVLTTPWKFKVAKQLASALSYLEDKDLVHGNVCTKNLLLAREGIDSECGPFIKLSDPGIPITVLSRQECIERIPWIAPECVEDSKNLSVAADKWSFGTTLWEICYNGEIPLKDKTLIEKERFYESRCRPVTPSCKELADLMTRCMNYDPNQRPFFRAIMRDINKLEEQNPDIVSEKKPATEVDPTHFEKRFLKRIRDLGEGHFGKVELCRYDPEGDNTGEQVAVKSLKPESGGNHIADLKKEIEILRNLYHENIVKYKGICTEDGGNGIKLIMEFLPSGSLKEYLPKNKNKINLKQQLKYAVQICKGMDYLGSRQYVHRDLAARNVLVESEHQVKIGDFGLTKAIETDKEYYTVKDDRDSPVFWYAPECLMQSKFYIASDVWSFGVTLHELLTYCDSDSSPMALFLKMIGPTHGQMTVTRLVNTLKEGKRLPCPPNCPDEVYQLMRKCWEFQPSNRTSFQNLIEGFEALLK
Reaction Procedure: • 1. Prepared indicated substrate in freshly prepared Base Reaction Buffer • 2. Delivered any required cofactors to the substrate solution above • 3. Delivered indicated kinase into the substrate solution and gently mix • 4. Delivered compounds in DMSO into the kinase reaction mixture by Acoustic technology (Echo550; nanoliter range), incubated for 20 minutes at room temperature • 5. Delivered 33P-ATP into the reaction mixture to initiate the reaction. • 6. Incubated kinase reaction for 2 hours at room temperature • 7. Reactions were spotted onto P81 ion exchange paper • 8. Detected kinase activity by filter-binding method.
Compounds according to the present invention were tested in the Biochemical Kinase Assay Protocol. The results are provided below in Table 1, wherein the potency levels A, B, and C in the columns labeled JAK1 (range) correspond to IC50 as follows: A<10 nM; B=10-50 nM and C>50 nM. The Example Number entries formatted ##a represent stereoisomer one and entries formatted ##b represent stereoisomer two.
On to `CC(C)C1=Cc2cc(Nc3nn([C@@H]4CCCC[C@H]4C#N)cc3C(N)=O)ccc2OB1O` (relative stereo) [Example 49, 1-(trans-2-cyanocyclohexyl)-3-[(2-hydroxy-3-isopropyl-1,2-benzoxaborinin-6-yl)amino]pyrazole-4-carboxamide], for which the IC50 was below 10 nM.

`CC(C)C1=Cc2cc(Nc3nn([C@@H]4CCC[C@H]4C#N)cc3C(N)=O)ccc2OB1O` (relative stereo) [Example 50, 1-(trans-2-cyanocyclopentyl)-3-[(2-hydroxy-3-isopropyl-1,2-benzoxaborinin-6-yl)amino]pyrazole-4-carboxamide]: the IC50 was below 10 nM.

`N#C[C@@H]1CCOC[C@H]1n1cc(C(N)=O)c(Nc2ccc3c(c2F)C=CB(O)O3)n1` (relative stereo) [Example 54, 1-(trans-4-cyanotetrahydro-2H-pyran-3-yl)-3-[(5-fluoro-2-hydroxy-1,2-benzoxaborinin-6-yl)amino]pyrazole-4-carboxamide]: the IC50 was 10 to 50 nM.

`CCC1=Cc2cc(Nc3nn([C@@H]4COCC[C@H]4C#N)cc3C(N)=O)ccc2OB1O` (relative stereo) [Example 56, 1-(trans-4-cyanotetrahydro-2H-pyran-3-yl)-3-[(3-ethyl-2-hydroxy-1,2-benzoxaborinin-6-yl)amino]pyrazole-4-carboxamide]: the IC50 was below 10 nM.

For the compound `N#C[C@@H]1CCOC[C@H]1n1cc(C(N)=O)c(Nc2ccc3c(c2)C2CC2B(O)O3)n1` (relative stereo) [Example 57, 1-(trans-4-cyanotetrahydro-2H-pyran-3-yl)-3-[(2-hydroxy-1a,7b-dihydro-1H-cyclopropa[c][1,2]benzoxaborinin-6-yl)amino]pyrazole-4-carboxamide], the IC50 was below 10 nM.

For `CC1=CB(O)Oc2ccc(Nc3nn(C4COCCC4C#N)cc3C(N)=O)cc21` (single isomer, unassigned) [Example 3a, 1-[trans-4-cyanotetrahydro-2H-pyran-3-yl]-3-[(2-hydroxy-4-methyl-1,2-benzoxaborinin-6-yl)amino]pyrazole-4-carboxamide (stereoisomerone)], the IC50 is below 10 nM.

As for `CC1=CB(O)Oc2ccc(Nc3nn(C4COCCC4C#N)cc3C(N)=O)cc21` (single isomer, unassigned) [Example 3b, 1-[trans-4-cyanotetrahydropyran-3-yl]-3-[(2-hydroxy-4-methyl-1,2-benzoxaborinin-6-yl)amino]pyrazole-4-carboxamide (stereoisomer two)], the IC50 lay in the range of 10 to 50 nM.

In the case of `Cc1cc(Nc2nn(C3COCCC3C#N)cc2C(N)=O)cc2c1B(O)OC2` (single isomer, unassigned) [Example 6a, 1-[trans-4-cyanotetrahydropyran-3-yl]-3-[(1-hydroxy-7-methyl-3H-2,1-benzoxaborol-5-yl)amino] pyrazole-4-carboxamide (stereoisomerone)], the IC50 is below 10 nM.

For `Cc1cc(Nc2nn(C3COCCC3C#N)cc2C(N)=O)cc2c1B(O)OC2` (single isomer, unassigned) [Example 6b, 1-[trans-4-cyanotetrahydropyran-3-yl]-3-[(1-hydroxy-7-methyl-3H-2,1-benzoxaborol-5-yl)amino]pyrazole-4-carboxamide (stereoisomer two)], the IC50 lay within 10 to 50 nM.

With `N#C[C@@H]1CCOC[C@H]1n1cc(C(N)=O)c(Nc2cc(Cl)c3c(c2)C=CB(O)O3)n1` (single isomer, unassigned) [Example 13a, 3-[(8-chloro-2-hydroxy-1,2-benzoxaborinin-6-yl)amino]-1-[trans-4-cyanotetrahydro-2H-pyran-3-yl]pyrazole-4-carboxamide], the IC50 was below 10 nM.

For the compound `N#C[C@@H]1CCOC[C@H]1n1cc(C(N)=O)c(Nc2cc(Cl)c3c(c2)C=CB(O)O3)n1` (single isomer, unassigned) [Example 13b, 3-[(8-chloro-2-hydroxy-1,2-benzoxaborinin-6-yl)amino]-1-[trans-4-cyanotetrahydro-2H-pyran-3-yl]pyrazole-4-carboxamide], the IC50 is below 10 nM.

Regarding `CC1=Cc2cc(Nc3nn([C@@H]4COCC[C@H]4C#N)cc3C(N)=O)cc(F)c2OB1O` (single isomer, unassigned) [Example 14a, 1-[trans-4-cyanotetrahydro-2H-pyran-3-yl]-3-[(8-fluoro-2-hydroxy-3-methyl-1,2-benzoxaborinin-6-yl)amino]pyrazole-4-carboxamide], the IC50 was below 10 nM.

Consider `CC1=Cc2cc(Nc3nn([C@@H]4COCC[C@H]4C#N)cc3C(N)=O)cc(F)c2OB1O` (single isomer, unassigned) [Example 14b, 1-[trans-4-cyanotetrahydro-2H-pyran-3-yl]-3-[(8-fluoro-2-hydroxy-3-methyl-1,2-benzoxaborinin-6-yl)amino]pyrazole-4-carboxamide], for which the IC50 was in the range of 10 to 50 nM.

For `N#C[C@@H]1CCOC[C@H]1n1cc(C(N)=O)c(Nc2ccc3c(c2)B(O)OC3)n1` (single isomer, unassigned) [Example 16a, 1-(trans-4-cyanotetrahydro-2H-pyran-3-yl)-3-((1-hydroxy-1,3-dihydrobenzo[c][1,2]oxaborol-6-yl)amino)-1H-pyrazole-4-carboxamide], the IC50 was above 50 nM.

As for `N#C[C@@H]1CCOC[C@H]1n1cc(C(N)=O)c(Nc2ccc3c(c2)B(O)OC3)n1` (single isomer, unassigned) [Example 16b, 1-(trans-4-cyanotetrahydro-2H-pyran-3-yl)-3-((1-hydroxy-1,3-dihydrobenzo[c][1,2]oxaborol-6-yl)amino)-1H-pyrazole-4-carboxamide], the IC50 is below 10 nM.

On to `Cc1c(Nc2nn([C@@H]3COCC[C@H]3C#N)cc2C(N)=O)ccc2c1C=CB(O)O2` (single isomer, unassigned) [Example 17a, 1-[trans-4-cyanotetrahydro-2H-pyran-3-yl]-3-[(2-hydroxy-5-methyl-1,2-benzoxaborinin-6-yl)amino]pyrazole-4-carboxamide], for which the IC50 was above 50 nM.

On to `Cc1c(Nc2nn([C@@H]3COCC[C@H]3C#N)cc2C(N)=O)ccc2c1C=CB(O)O2` (single isomer, unassigned) [Example 17b, 1-[trans-4-cyanotetrahydropyran-3-yl]-3-[(2-hydroxy-5-methyl-1,2-benzoxaborinin-6-yl)amino]pyrazole-4-carboxamide], for which the IC50 was above 50 nM.

With `CC1=C(C)c2cc(Nc3nn([C@@H]4COCC[C@H]4C#N)cc3C(N)=O)cc(C)c2OB1O` (single isomer, unassigned) [Example 23a, 1-[trans-4-cyanotetrahydro-2H-pyran-3-yl]-3-[(2-hydroxy-3,4,8-trimethyl-1,2-benzoxaborinin-6-yl)amino]pyrazole-4-carboxamide], the IC50 is below 10 nM.

As to `CC1=C(C)c2cc(Nc3nn([C@@H]4COCC[C@H]4C#N)cc3C(N)=O)cc(C)c2OB1O` (single isomer, unassigned) [Example 23b, 1-[trans-4-cyanotetrahydro-2H-pyran-3-yl]-3-[(2-hydroxy-3,4,8-trimethyl-1,2-benzoxaborinin-6-yl)amino]pyrazole-4-carboxamide], the IC50 is above 50 nM.

Turning to `Cc1cc(Nc2nn([C@@H]3COCC[C@H]3C#N)cc2C(N)=O)cc2c1OB(O)C=C2` (single isomer, unassigned) [Example 27a, 1-[trans-4-cyanotetrahydropyran-3-yl]-3-[(2-hydroxy-8-methyl-1,2-benzoxaborinin-6-yl)amino]pyrazole-4-carboxamide], the IC50 lay in the range of 10 to 50 nM.

As for `Cc1cc(Nc2nn([C@@H]3COCC[C@H]3C#N)cc2C(N)=O)cc2c1OB(O)C=C2` (single isomer, unassigned) [Example 27b, 1-[trans-4-cyanotetrahydropyran-3-yl]-3-[(2-hydroxy-8-methyl-1,2-benzoxaborinin-6-yl)amino]pyrazole-4-carboxamide], the IC50 is below 10 nM.

In the case of `N#C[C@@H]1CCOC[C@H]1n1cc(C(N)=O)c(Nc2cc3c(c(C(F)(F)F)c2)OB(O)C=C3)n1` (single isomer, unassigned) [Example 28a, 1-[trans-4-cyanotetrahydro-2H-pyran-3-yl]-3-[[2-hydroxy-8-(trifluoromethyl)-1,2-benzoxaborinin-6-yl]amino]pyrazole-4-carboxamide], the IC50 is above 50 nM.

With `N#C[C@@H]1CCOC[C@H]1n1cc(C(N)=O)c(Nc2cc3c(c(C(F)(F)F)c2)OB(O)C=C3)n1` (single isomer, unassigned) [Example 28b, 1-[trans-4-cyanotetrahydro-2H-pyran-3-yl]-3-[[2-hydroxy-8-(trifluoromethyl)-1,2-benzoxaborinin-6-yl]amino]pyrazole-4-carboxamide], the IC50 was below 10 nM.

Take `CC(C)C1=CB(O)Oc2ccc(Nc3nn([C@@H]4COCC[C@H]4C#N)cc3C(N)=O)cc21` (single isomer, unassigned) [Example 30a, 1-[trans-4-cyanotetrahydro-2H-pyran-3-yl]-3-[(2-hydroxy-4-isopropyl-1,2-benzoxaborinin-6-yl)amino]pyrazole-4-carboxamide]: the IC50 was above 50 nM.

On to `CC(C)C1=CB(O)Oc2ccc(Nc3nn([C@@H]4COCC[C@H]4C#N)cc3C(N)=O)cc21` (single isomer, unassigned) [Example 30b, 1-[trans-4-cyanotetrahydro-2H-pyran-3-yl]-3-[(2-hydroxy-4-isopropyl-1,2-benzoxaborinin-6-yl)amino]pyrazole-4-carboxamide], for which the IC50 was below 10 nM.

The values above are taken from US11827657B2, “Boron containing pyrazole compounds, compositions comprising them, methods and uses thereof” (BOEHRINGER INGELHEIM ANIMAL HEALTH USA INC., priority 2020, dated 2023).
